Where two headings read alike, the source gives them in different places.
Biological target: BTK (Homo sapiens, UniProt Q06187)
Assay: biochemical
[1] = read-out: BTK inhibition (%), 0.75 uM BTK, […] probe 3l, 15 min preincubation

Chain of BTK (Q06187 402-655 limits assumed): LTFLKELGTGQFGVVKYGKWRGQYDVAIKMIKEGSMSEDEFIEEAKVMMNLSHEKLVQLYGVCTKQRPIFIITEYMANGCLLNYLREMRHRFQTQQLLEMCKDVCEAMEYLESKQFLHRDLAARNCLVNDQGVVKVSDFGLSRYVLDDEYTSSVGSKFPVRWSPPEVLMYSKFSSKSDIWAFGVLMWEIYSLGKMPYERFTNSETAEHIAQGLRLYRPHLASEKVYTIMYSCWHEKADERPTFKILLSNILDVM

Structure (SMILES)	inhibition at 10 µM [1] [%]	inhibition at 10 µM (read-out: BTK inhibition (%)) [%]
Cc1cc(C(N)=O)ccc1-n1c(CCC(=O)O)ccc1-c1ccc(-n2ccnc2)cc1 [PCM-0215346]	6.9	–
Cc1cc(C)c(CNC(=O)c2cc(-c3ccc(N4CCN(C)CC4)nc3)cc3c2c(C)cn3C(C)C)c(=O)[nH]1 [PCM-0215513]	-6.9	–
CN(C)c1ccc2c(c1)Sc1cc(N(C)C)ccc1N2 [PCM-0215668]	72.6	–
O=S(=O)(O)CCS [PCM-0086246]	-3.1	–
c1ccc2occc2c1 [PCM-0216211]	6.2	–
OC[C@H]1O[C@@H](OCCc2ccc(O)cc2)[C@H](O)[C@@H](O)[C@@H]1O [PCM-0094523]	-13.2	–
CCOC(=O)C1=C(N)Oc2ccc(Cl)cc2C1C(C#N)C(=O)OCC (centres unmarked) [PCM-0215487]	40.9	–
Cc1ncc([N+](=O)[O-])n1CC(O)CCl (centres unmarked) [PCM-0085772]	-3.9	–
COC(=O)C1=CO[C@@H](O[C@@H]2O[C@H](CO)[C@@H](O)[C@H](O)[C@H]2O)[C@@H]2[C@@]3(C)O[C@H]3[C@@H](O)[C@]12O [PCM-0216309]	-0.8	–
CO/N=C(\C(=O)N[C@@H]1C(=O)N2C(C(=O)O)=C(CSc3nc(=O)c(O)nn3C)CS[C@H]12)c1csc(N)n1 [PCM-0215203]	-16.2	–
O=Cc1ccc(CO)o1 [PCM-0216119]	-2.3	–
COc1nc(C)cnc1NS(=O)(=O)c1cccnc1-c1ccc(-c2nnco2)cc1 [PCM-0095131]	3.4	–
Cn1cnc2c(F)c(Nc3ccc(Br)cc3F)c(C(=O)NOCCO)cc21 [PCM-0215228]	22.8	–
O=C(/C=C\n1cnc(-c2cc(C(F)(F)F)cc(C(F)(F)F)c2)n1)NNc1ccccn1 [PCM-0215397]	-19.3	–
COc1cccc2cc(-c3nc(C4CCC(C(=O)O)CC4)n4ncnc(N)c34)[nH]c12 (centres unmarked) [PCM-0095482]	28.3	–
NC(=O)c1cnccn1 [PCM-0065550]	5.4	–
CC(C)NCC(O)COc1ccc(COCCOC(C)C)cc1 (centres unmarked) [PCM-0064988]	-31.9	–
COc1cc2c(=O)c(-c3ccc(O)cc3)coc2cc1O [PCM-0216399]	6.2	–
Cc1cc(C)cc(C(=O)NOCCCCCC(=O)NO)c1 [PCM-0215409]	9.3	–
CC(C)NCC(O)COc1cccc2ccccc12 (centres unmarked) [PCM-0064763]	-12.5	–

Structure (SMILES)	inhibition at 10 µM [1] [%]	inhibition at 10 µM (read-out: BTK inhibition (%)) [%]
O=C(Nc1ccc([N+](=O)[O-])cc1O)Nc1ccccc1Br [PCM-0215392]	73.1	–
O=C1C(=Cc2ccncc2)CCCC1=Cc1ccncc1 [PCM-0216087]	-4.1	–
CC[C@H](C)[C@H](N)C(=O)N[C@H]1CSSC[C@@H](C(=O)N[C@H](C(N)=O)[C@@H](C)O)NC(=O)[C@H](CCCN=C(N)N)NC(=O)[C@H](Cc2cnc[nH]2)NC(=O)[C@H](Cc2cnc[nH]2)NC(=O)CNC(=O)[C@H](Cc2c[nH]c3ccccc23)NC(=O)[C@H](CC(=O)O)NC(=O)[C@H](CCC(N)=O)NC(=O)[C@H](C(C)C)NC(=O)[C@H](C(C)C)NC1=O [PCM-0215822]	-3.4	–
N[C@@H](Cc1cc(I)c(O)c(I)c1)C(=O)O [PCM-0215163]	-31.9	–
c1ccc(CNCc2ccc(CN3CCCNCCNCCCNCC3)cc2)nc1 [PCM-0215781]	-2.6	–
O=[N+]([O-])c1ccc(Sc2cccc[n+]2[O-])c2nonc12 [PCM-0215705]	73.4	–
O=C(O)C(Cc1c[nH]c2ccccc12)N1C(=O)c2ccccc2C1=O (centres unmarked) [PCM-0095449]	7.6	–
CCNC(=O)CCC/C=C\C[C@@H]1[C@@H](/C=C/[C@@H](O)CCc2ccccc2)[C@H](O)C[C@@H]1O [PCM-0095085]	15.2	–
CN1CCc2nc(C(=O)N[C@@H]3C[C@@H](C(=O)N(C)C)CC[C@@H]3NC(=O)C(=O)Nc3ccc(Cl)cn3)sc2C1 [PCM-0216277]	-4.6	–
CS(=O)(=O)c1ccc([C@@H](O)[C@@H](CO)NC(=O)C(Cl)Cl)cc1 [PCM-0085804]	-8.6	–
CCCCC[C@H](O)CC(=O)CCc1ccc(O)c(OC)c1 [PCM-0214961]	1.6	–
CC(C)=CCc1cc2c(cc1O)oc(=O)c1c3ccc(O)cc3oc21 [PCM-0216176]	17.2	–
COc1cc(C[C@@H](COC2OC(CO)C(O)C(O)C2O)[C@@H](COC2OC(CO)C(O)C(O)C2O)Cc2ccc(O)c(OC)c2)ccc1O (some centres unmarked) [PCM-0214976]	2.3	–
Cc1nc(N)sc1-c1ccnc(Nc2ccc(N3CCOCC3)cc2)n1 [PCM-0095025]	57.2	–
Nc1ncnc2c1ncn2C(C=O)OC(C=O)CO (centres unmarked) [PCM-0215903]	0.8	–
COc1nc(C)nc(Cl)c1NC1=NCCN1 [PCM-0065456]	0.8	–
Clc1ccccc1C(c1ccccc1)(c1ccccc1)n1ccnc1 [PCM-0064702]	-2.3	–
CC(C)C(=O)Oc1ccc(CO)cc1[C@H](CCN(C(C)C)C(C)C)c1ccccc1 [PCM-0095281]	-0.8	–
CC(C)(O)CNc1ncc(-c2ccnc(Nc3ccncc3)n2)c(CC2CC2)n1 [PCM-0215768]	9.7	–
Cc1cc(F)c(Nc2ncnc3cc(OCc4ccccc4)ccc23)cc1O [PCM-0095349]	46.9	–

Structure (SMILES)	inhibition at 10 µM [1] [%]	inhibition at 10 µM (read-out: BTK inhibition (%)) [%]
CO[C@@H]1[C@@H](O[C@@H]2O[C@H](C)[C@@H](O[C@H]3C[C@@](C)(O)[C@@H](O)[C@H](C)O3)[C@H](N(C)C)[C@H]2O)[C@@H](CC=O)C[C@@H](C)[C@@H](O)/C=C/C=C/C[C@@H](C)OC(=O)C[C@H]1O [PCM-0214884]	6.2	–
c1ccc2c(c1)CCCC2C1=NCCN1 (centres unmarked) [PCM-0064782]	-11	–
Cc1ncc([N+](=O)[O-])n1C [PCM-0216192]	-21.4	–
CC1(C)S[C@@H]2[C@H](NC(=O)[C@H](C(=O)O)c3ccsc3)C(=O)N2[C@H]1C(=O)O [PCM-0214724]	-1.6	–
COCCCN1CCC(NC(=O)c2cc(Cl)c(N)c3c2OCC3)CC1 [PCM-0095543]	-16.3	–
CCN1CCN(c2cc3c(cc2F)c(=O)c(C(=O)O)cn3C2CC2)CC1 [PCM-0090392]	-11.9	–
C=C1/C(=C\C=C2/CCC[C@]3(C)[C@@H]([C@H](C)CCCC(C)C)CC[C@@H]23)C[C@@H](O)C[C@@H]1O [PCM-0086012]	-3.1	–
CN1CCN2c3ncccc3Cc3ccccc3C2C1 (centres unmarked) [PCM-0086153]	12.5	–
O=C(Nc1ccc(-c2ccnc(Nc3ccc(N4CCOCC4)cc3)n2)cc1)[C@@H]1CCCN1 [PCM-0215262]	4.8	–
O=C(Nc1ccc(Br)cc1)c1ccc(Br)c(S(=O)(=O)NCc2ccccc2)c1 [PCM-0215665]	100	–
OCc1c[nH]c2ccccc12 [PCM-0091140]	-14	–
Cc1cccc2c3c(ccc12)C1=C(C(=O)C3=O)[C@@H](C)CO1 [PCM-0216343]	22.4	–
Cc1cccc(C)c1NC1=NCCCS1 [PCM-0064906]	–	-21.8
O=C1C2CCN(CC2)C1(CO)CO [PCM-0215683]	0.8	–
CCCCCCCC(=O)CCc1ccc(O)c(OC)c1 [PCM-0216195]	-8.3	–
O=C(O)CCCNC(=O)c1cccnc1 [PCM-0216143]	-17	–
O=C(O)CCCc1ccccc1 [PCM-0095550]	-12.4	–
C[C@H]1C[C@H]2[C@@H]3CCC4=CC(=O)C=C[C@]4(C)[C@H]3C(=O)C[C@]2(C)[C@@]1(O)C(=O)CO [PCM-0095139]	29	–
CCc1c(O)cc(O)c(C(=O)c2ccc(OCCN3CCOCC3)c(OC)c2)c1CC(=O)N(CCOC)CCOC [PCM-0095381]	2.3	–
